# Patent US7297714B2, “Inhibitors of cathepsin S” (IRM LLC, priority 2003, dated 2007)
# Assays:
# Assay type in all cases: biochemical
# Cathepsin B = Cathepsin B (Homo sapiens, UniProt P07858); test: Cathepsin B inhibition assay, selectivity for cathepsin S over cathepsin B; conditions: ratio of cathepsin B inhibition constant to cathepsin S inhibition constant
# Experimental: (§1) The optimal substrate for cathepsin B, acetyl-histidine-proline-valine-lysine-amino carbamoyl coumarin, was identified from screening a combinatorial library of fluorogenic peptide substrates (Harris, J. L., B. J. Backes, et al., Proc Natl Acad Sci US A 2000, 97(14), 7754-9). Kinetic measurements are performed in a total reaction volume of 30 μl in 384-well microtiter plates. Cathepsin B, at a final concentration of 1.5 nM (active site), is incubated with the compounds at twelve varying concentrations in a buffer containing 100 mM NaAc (pH5.5), 1 mM EDTA, 100 mM NaCl, 0.01% Brij-35 for 20 minutes at room temperature. Control reactions in the absence of inhibitor are performed in replicates of 24. The reactions are initiated by adding the substrate, acetyl-histidine-proline-valine-lysine-amino carbamoyl coumarin, to a final concentration of 10 μM. The rate of substrate hydrolysis is measured by monitoring the increase in fluorescence at an excitation wavelength of 380 nm and an emission wavelength of 450 nm that results from cleavage of the aniline bond in the substrate by the enzyme. The apparent inhibition constants for the compounds are determined from the enzyme progress curves (Kuzmic, P., K. C. Elrod, et al., Anal Biochem 2000, 286(1), 45-50) and are then used to calculate the inhibition constants for competitive inhibitors.
# (§2) Selectivity for cathepsin S in the presence of cathepsin isozymes was determined by the ratio of the cathepsin isozyme inhibition constant of a compound of the present invention to the cathepsin S inhibition constant of the same compound. Preferred compounds of the present invention selective for cathepsin S have ratios of greater than 10. More preferred compounds of the present invention selective for cathepsin S have ratios of greater than 100. Most preferred compounds of the present invention selective for cathepsin S have ratios of greater than 1000.
# Cathepsin S = Cathepsin S (Homo sapiens, UniProt P25774); test: Cathepsin S inhibition assay (fluorogenic peptide substrate); conditions: Cathepsin S inhibition constant; pH5.5; read-out: Ki Cat. S
# Cathepsin S, sequence (P25774 115-331, species assumed): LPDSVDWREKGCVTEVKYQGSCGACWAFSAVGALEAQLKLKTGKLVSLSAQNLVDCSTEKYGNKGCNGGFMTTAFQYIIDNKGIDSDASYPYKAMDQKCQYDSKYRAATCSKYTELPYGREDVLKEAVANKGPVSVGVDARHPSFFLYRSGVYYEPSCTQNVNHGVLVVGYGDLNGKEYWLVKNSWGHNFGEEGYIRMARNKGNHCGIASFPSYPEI
# Excerpt: “Inhibition constant”, Ki, is the dissociation constant of the enzyme-inhibitor complex, or the reciprocal of the binding affinity of the inhibitor to the enzyme. For classical inhibition the value of Ki is much greater than the enzyme concentration and the Ki can be measured by monitoring the rate of reaction for a competitive substrate at multiple inhibitor concentrations. The inhibited rates are then fit by nonlinear regression to the following equation: […]
# The assumption being made for the classical inhibition described above is that the free inhibitor concentration is equal to the total inhibitor concentration. For inhibitors that have Ki's that are approximately equal to the enzyme concentration [E], the assumption that the free inhibitor concentration is equal to the total inhibitor concentration is no longer valid and an alternative equation has to be fit for determination of the apparent inhibition constant, Ki^app using described methods (Kuzmic, P., K. C. Elrod, et al., Anal Biochem 2000, 286(1), 45-50):
# as §1, with “cathepsin S,” for “cathepsin B,”, “Sci U S” for “Sci US”, “Cathepsin S,” for “Cathepsin B,”, “of 0.3-3” for “of 1.5”, “of 50” for “of 10”
# Cathepsin K = molecular target: T1, Cathepsin K (Homo sapiens, UniProt P43235); test: Cathepsin K inhibition assay, selectivity for cathepsin S over cathepsin K; conditions: ratio of cathepsin K inhibition constant to cathepsin S inhibition constant
# T1 sequence (P43235 115-329): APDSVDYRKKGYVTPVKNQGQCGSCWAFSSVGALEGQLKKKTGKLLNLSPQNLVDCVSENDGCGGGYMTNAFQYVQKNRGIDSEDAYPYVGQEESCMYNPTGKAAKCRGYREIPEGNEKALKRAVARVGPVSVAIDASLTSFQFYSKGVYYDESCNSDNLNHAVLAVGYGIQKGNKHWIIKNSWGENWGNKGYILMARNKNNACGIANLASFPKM
# Experimental: as §1, with “cathepsin K, acetyl-lysine-histidine-proline-lysine-amino” for “cathepsin B, acetyl-histidine-proline-valine-lysine-amino”, “Sci USA” for “Sci US A”, “Cathepsin K,” for “Cathepsin B,”, “of 3.5” for “of 1.5”, “substrate, acetyl-lysine-histidine-proline-lysine-amino” for “substrate, acetyl-histidine-proline-valine-lysine-amino”, “of 40” for “of 10”
# as §2
# Cathepsin L = Cathepsin L (Homo sapiens, UniProt P07711); test: Cathepsin L inhibition assay, selectivity for cathepsin S over cathepsin L; conditions: ratio of cathepsin L inhibition constant to cathepsin S inhibition constant
# Cathepsin L, sequence (P07711 114-333, species assumed): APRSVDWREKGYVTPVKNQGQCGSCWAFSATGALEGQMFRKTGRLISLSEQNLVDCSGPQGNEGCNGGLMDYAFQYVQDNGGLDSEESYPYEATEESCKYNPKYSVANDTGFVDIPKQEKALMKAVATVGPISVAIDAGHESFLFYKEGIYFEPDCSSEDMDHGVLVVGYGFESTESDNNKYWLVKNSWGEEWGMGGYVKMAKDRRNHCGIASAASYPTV
# Experimental: The optimal substrate for cathepsin L, acetyl-histidine-lysine-phenylalanine-lysine-amino carbamoyl coumarin, was identified from screening a combinatorial library of fluorogenic peptide substrates (Harris, J. L., B. J. Backes, et al.; Proc Natl Acad Sci USA 2000, 97(14), 7754-9). Kinetic measurements are performed in a total reaction volume of 30 μl in 384-well microtiter plates. Cathepsin L, at a final concentration of 0.1 nM (active site), is incubated with the compounds at twelve varying concentrations in a buffer containing 100 mM NaAc (pH5.5), 1 mM EDTA, 100 mM NaCl, 0.01% Brij-35 for 20 minutes at room temperature. Control reactions in the absence of inhibitor are performed in replicates of 24. The reactions are initiated by adding the substrate, acetyl-histidine-lysine-phenylalanine-lysine-amino carbamoyl coumarin, to a final concentration of 20 μM. The rate of substrate hydrolysis is measured by monitoring the increase in fluorescence at an excitation wavelength of 380 nm and an emission wavelength of 450 nm that results from cleavage of the aniline bond in the substrate by the enzyme. The apparent inhibition constants for the compounds are determined from the enzyme progress curves (Kuzmic, P., K. C. Elrod, et al., Anal Biochem 2000, 286(1), 45-50) and are then used to calculate the inhibition constants for competitive inhibitors.
# as §2
Selectivity for Cat. S over Cat. B (Cathepsin B),Ki (Cathepsin S),Selectivity for Cat. S over Cat. K (Cathepsin K),Selectivity for Cat. S over Cat. L (Cathepsin L),Compound
"+++ (+++, >1000)",< 100 nM,"++ (++, >100)","++ (++, >100)","O=C1C[C@H](NC(=O)[C@H](CC2CCCCC2)NC(=O)c2ccc(-c3cccc(F)c3)o2)C(O)O1 (mixture of isomers) [Example 15, (3S)-(3-Cyclohexyl-(2S)-{[5-(3-fluoro-phenyl)-furan-2-carbonyl]-amino}-propionylamino)-4-oxo-butyric acid]"
"+ (+, >10)",< 100 nM,"+ (+, >10)",–,"O=C1C[C@H](NC(=O)[C@H](CC2CCCCC2)NC(=O)OCc2ccccc2)C(OCc2ccccc2)O1 (stereo partly drawn) [Example 11, (3S)-[(2S)-benzyloxycarbonylamino-3-cycohexyl-propionylamino]-2-benzyloxy-5-oxo-tetrahydrofuran]"
"+ (+, >10)",< 1000 nM,"+ (+, >10)","+ (+, >10)","COC1OC(=O)C[C@@H]1NC(=O)[C@H](CC1CCCCC1)NC(=O)c1ccc(-c2cccc(F)c2)o1 (stereo partly drawn) [Example 16, (3S)-[3-Cyclohexyl-(2S)-{[5-(3-fluoro-phenyl)-furan-2-carbonyl]-amino}propionylamino]-2-methoxy-5-oxo-tetrahydrofuran]"
"+++ (+++, >1000)",< 100 nM,"++ (++, >100)","+ (+, >10)","N#Cc1cccc(C(=O)N[C@@H](CC2CCCC2)C(=O)N[C@H]2CC(=O)OC2O)c1 (stereo partly drawn) [Example 18, (3S)-((2S)-(3-cyanophenyl-carbonylamino)-3-cyclopentyl-propionylamino)-4-oxo-butyric acid]"
"+++ (+++, >1000)",< 100 nM,"++ (++, >100)","+++ (+++, >1000)","O=C1C[C@H](NC(=O)[C@H](CC2CCCC2)NC(=O)C2CC2)C(O)O1 (stereo partly drawn) [Example 19, (3S)-(3-Cyclopentyl-(2S)-(cyclopropylcarbonylamino)-propionylamino)-4-oxo-butyric acid]"
"+++ (+++, >1000)",< 100 nM,"++ (++, >100)","++ (++, >100)","O=C1C[C@H](NC(=O)[C@H](CC2CCCC2)NC(=O)OC2CCOCC2)C(O)O1 (stereo partly drawn) [Example 20, (3S)-(3-Cyclopentyl-(2S)-(tetrahydro-pyran-4-yloxycarbonylamino)-propionylamino)-4-oxo-butyric acid]"
"++ (++, >100)",< 100 nM,"+ (+, >10)","++ (++, >100)","O=C1C[C@H](NC(=O)[C@H](CC2CC2)NC(=O)C2CC2)C(O)O1 (stereo partly drawn) [Example 21, (3S)-(3-Cyclopropyl-(2S)-(cyclopropylcarbonylamino)-propionylamino)-4-oxo-butyric acid]"
"+++ (+++, >1000)",< 100 nM,"+ (+, >10)","+++ (+++, >1000)","CC(C)(C)C[C@H](NC(=O)C1CC1)C(=O)N[C@H]1CC(=O)OC1O (stereo partly drawn) [Example 22, (3S)-((2S)-(cyclopropylcarbonylamino)-4,4-dimethyl-pentanoylamino)-4-oxo-butyric acid]"
"+++ (+++, >1000)",< 100 nM,"++ (++, >100)","+++ (+++, >1000)","O=C1C[C@H](NC(=O)[C@H](CC2CCCC2)NC(=O)c2ccc(-c3cccc(C(F)(F)F)c3)o2)C(O)O1 (stereo partly drawn) [Example 23, (3S)-(3-Cyclopentyl-(2S)-{[5-(3-trifluoromethyl-phenyl)-furan-2-carbonyl]-amino}-propionylamino)-4-oxo-butyric acid]"
"+++ (+++, >1000)",< 100 nM,"++ (++, >100)","+ (+, >10)","O=C1C[C@H](NC(=O)[C@H](CC2CCCC2)NC(=O)c2cccc(C(F)(F)F)c2)C(O)O1 (stereo partly drawn) [Example 24, (3S)-(3-Cyclopentyl-(2S)-(3-trifluoromethylphenyl-carbonylamino)-propionylamino)-4-oxo-butyric acid]"

Compound,Selectivity for Cat. S over Cat. B (Cathepsin B),Ki (Cathepsin S),Selectivity for Cat. S over Cat. K (Cathepsin K),Selectivity for Cat. S over Cat. L (Cathepsin L)
"CCOC1OC(=O)C[C@@H]1NC(=O)[C@H](CC1CCCC1)NC(=O)c1ccc(-c2cccc(F)c2)o1 (stereo partly drawn) [Example 12, (3S)-[3-Cyclopentyl-(2S)-{[5-(3-fluoro-phenyl)-furan-2-carbonyl]-amino}propionylamino]-2-ethoxy-5-oxo-tetrahydrofuran]","++ (++, >100)",< 100 nM,"+ (+, >10)","++ (++, >100)"
"CCO[C@@H]1OC(=O)C[C@@H]1NC(=O)[C@H](CC(C)(C)C)NC(=O)OC(C)(C)C [Example 13, (3S)-[(2S)-t-butoxycarbonylamino-4,4-dimethyl-pentanoylamino]-(2R)-ethoxy-5-oxo-tetrahydrofuran]","++ (++, >100)",< 1000 nM,–,"+ (+, >10)"
